Measurements as given in ChEMBL document CHEMBL1201862, “PubChem BioAssay data set” (2004).
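Test compounds were applied to cells in 96-well plates for 48 hours at 5 doses. Here, GI50 denotes the concentration required for 50% inhibition of growth.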 Active and inactive are the calls of the source. Cut-off read from the data, not from the text of the source: active = GI50 up to about 1.1 µM and inactive = higher.

What was measured:
Experiment in all cases: NCI tumour cell line growth inhibition, 48 h
[1] = system: SK-MEL-2
[2] = system: NCI-H522
[3] = system: UACC-257
[4] = system: K562
[5] = system: HCT-116
[6] = system: DU-145
[7] = system: UACC-62
[8] = system: SK-MEL-28
[9] = system: M14
[10] = system: PC-3
[11] = system: RXF 393
[12] = system: HCC 2998
[13] = system: A549
[14] = system: COLO 205
[15] = system: T47D
[16] = system: SK-OV-3
[17] = system: EKVX
[18] = system: HOP-62
[19] = system: SR
[20] = system: SF-295
[21] = system: NCI/ADR-RES
[22] = system: MDA-MB-231
[23] = system: KM12
[24] = system: OVCAR-3
[25] = system: UO-31
[26] = system: SNB-19
[27] = system: IGROV-1
[28] = system: ACHN
[29] = system: HOP-92
[30] = system: 786-0
[31] = system: HT-29
[32] = system: CCRF-CEM
[33] = system: U-251
[34] = system: LOX IMVI
[35] = system: SK-MEL-5
[36] = system: MDA-N
[37] = system: OVCAR-4
[38] = system: SF-539
[39] = system: OVCAR-5
[40] = system: Malme-3M
[41] = system: A498
[42] = system: NCI-H226
[43] = system: NCI-H23
[44] = system: SN12C
[45] = system: HCT-15
[46] = system: MCF7
[47] = system: OVCAR-8
[48] = system: SW-620
[49] = system: SF-268
[50] = system: HL-60
[51] = system: TK-10
[52] = system: SNB-75
[53] = system: NCI-H460
[54] = system: MDA-MB-435
[55] = system: MOLT-4
[56] = system: CAKI-1

CCOC(=O)Cc1nnc2n(-c3ccccc3)c(=O)c3ccccc3n12
GI50 [1]: 41.6 µM (inactive) | GI50 [2]: 77.4 µM (inactive) | GI50 [3]: 46.1 µM (inactive) | GI50 [4]: > 100 µM (inactive) | GI50 [5]: 90.8 µM (inactive) | GI50 [6]: > 100 µM (inactive) | GI50 [7]: 44.3 µM (inactive) | GI50 [8]: 55.7 µM (inactive) | GI50 [9]: > 100 µM (inactive) | GI50 [10]: 34.5 µM (inactive) | GI50 [11]: > 100 µM (inactive) | GI50 [12]: > 100 µM (inactive) | GI50 [13]: > 100 µM (inactive) | GI50 [14]: 83.8 µM (inactive) | GI50 [15]: > 100 µM (inactive) | GI50 [16]: > 100 µM (inactive) | GI50 [17]: > 100 µM (inactive) | GI50 [18]: 62.4 µM (inactive) | GI50 [19]: > 100 µM (inactive) | GI50 [20]: > 100 µM (inactive) | GI50 [21]: > 100 µM (inactive) | GI50 [22]: > 100 µM (inactive) | GI50 [23]: > 100 µM (inactive) | GI50 [24]: > 100 µM (inactive) | GI50 [25]: > 100 µM (inactive) | GI50 [26]: 74.8 µM (inactive) | GI50 [27]: > 100 µM (inactive) | GI50 [28]: > 100 µM (inactive) | GI50 [29]: 17.1 µM (inactive) | GI50 [30]: > 100 µM (inactive) | GI50 [31]: > 100 µM (inactive) | GI50 [32]: > 100 µM (inactive) | GI50 [33]: > 100 µM (inactive) | GI50 [34]: > 100 µM (inactive) | GI50 [35]: > 100 µM (inactive) | GI50 [36]: > 100 µM (inactive) | GI50 [37]: > 100 µM (inactive) | GI50 [38]: 51.6 µM (inactive) | GI50 [39]: > 100 µM (inactive) | GI50 [40]: > 100 µM (inactive) | GI50 [41]: > 100 µM (inactive) | GI50 [42]: > 100 µM (inactive) | GI50 [43]: > 100 µM (inactive) | GI50 [44]: > 100 µM (inactive) | GI50 [45]: > 100 µM | GI50 [46]: > 100 µM (inactive) | GI50 [47]: > 100 µM (inactive) | GI50 [48]: > 100 µM (inactive) | GI50 [49]: 61.7 µM (inactive) | GI50 [50]: > 100 µM (inactive) | GI50 [51]: > 100 µM (inactive) | GI50 [52]: 43.9 µM (inactive) | GI50 [53]: > 100 µM (inactive) | GI50 [54]: > 100 µM (inactive) | GI50 [55]: > 100 µM (inactive) | GI50 [56]: 20.2 µM (inactive)
